Positions of bridges follow the written chain, without caps; N, C: chain ends. Non-standard residues stand in square brackets, D forms with d. Residues, ends and D or L forms follow the SMILES beside them. *: point of attachment. Ileψ(thiazoline)Cys = CC[C@H](C)[C@H](N)C1=N[C@H](C(=O)*)CS1; dOrn = NCCC[C@@H](N)C(=O)O
Assays:
[1] = molecular target: T1, B. subtilis RNAP (Bacillus subtilis, UniProt P37870+P37871); test: Dual reporter assay in strain PL37: test reporter Pxyl-lacZ and ratio of control to test reporter (RES:MUG); assay type: cell-based; conditions: for Ratio of the control reporter (RES): test reporter (MUG): strain PL37, DMSO control […]
T1 construct: endogenous in cells; host or cells: Bacillus subtilis strain PL37 (built from strain 168)
Method: (§1) 20 known antibiotics were tested at a range of concentrations to determine their effect on test and control reporters within the assay. […] Cultures of PL37 grown in PAB, were diluted to 0.05 A600 and then grown for 2 hours at 37° C. in PAB supplemented with 0.02 mM IPTG. Cells were pelleted and frozen. They were later resuspended and diluted in PAB supplemented with 0.02 mM IPTG and grown at 37° C. to early exponential phase. Cultures were then diluted to 0.05 A600 in PAB and added in 20 μl volumes to wells of microtitre plates containing 20 μl volumes of the antibiotics. Plates were incubated at 37° C. for two hours, and assay mix was added to detect reporter enzyme activity (see below).
(§2) Following the addition of 160 μl of assay mix (1.3×Z buffer containing 94 μg/ml lysozyme, 8.4 μg/ml 4-methylumbelliferyl-β-D-galactoside, 0.53 μg/ml resorufin-β-D-glucuronide and 0.05% Triton) to each well, the microtitre plate was incubated in the dark for 30 mini or 1 hour at room temperature. Fluorescence was read on a BMG FLUOstar Galaxy at excitation/emission 355/460 nm and 544/590 nm, respectively, with gains set at 5 and 25, respectively.

[2] = molecular target: T2, T7 RNAP (Escherichia phage T7, UniProt P00573); test: Dual reporter assay in strain PL37: control reporter PT7X-gus; assay type: cell-based, bacteriophage T7; conditions: strain PL37, FIG. 5
T2 construct: expressed in transfected cells; host or cells: Bacillus subtilis PL37, with Pspac-rpoT7 integrated in the chromosome and induced by IPTG
Method: as §1, §2

[3] = molecular target: T3, bacterial RNA polymerase (Bacillus subtilis, UniProt P37870+P37871); test: Dual reporter assay in strain X (xylose-induced lacZ and T7 RNAP-driven gus reporters); assay type: cell-based; conditions: 30 min incubation
T3 construct: endogenous in cells; host or cells: Bacillus subtilis strain X (derivative of strain 168)
Text: The strain X is a derivative of the standard laboratory strain of Bacillus subtilis 168. It has been modified in three ways.
1. It carries a xylose-inducible promoter driving transcription of the well known reporter gene lacZ, encoding the enzyme β-galactosidase. The reporter gene is silent or expressed at low levels in the absence of xylose because the endogenous XylR protein binds to the promoter region, reducing the ability of RNAP to initiate transcription. On addition of xylose or similar sugar, the repressor leaves the promoter allowing RNAP to transcribe the gene strongly, resulting in increased synthesis of β-galactosidase. A simple colourigenic substrate, ONPG was used to detect the formation of the enzyme.
2. Strain X also carries a second reporter gene comprising a promoter recognised by the RNAP of bacteriophage T7. This promoter has been modified so as to be recognised and repressed by the same XylR repressor as controls the first reporter. Consequently, the promoter cannot be utilised by T7 RNAP unless xylose is present. […]
The assay was done by growing a culture of strain X in the absence of xylose and then dispensing aliquots of culture into the wells of a microtitre plate. […] The plate was incubated for 30 min to allow accumulation of the two reporter enzymes, then the cells were lysed and the two enzyme activities were measured.

[4] = Dilution Number 1 (highest concentration tested: 128, 16 or 0.5 μg/ml depending on antibiotic)
[5] = Dilution Number 11 (lowest concentration tested: 0.125, 0.016 or 0.0005 μg/ml depending on antibiotic)

T1 sequence (P37871 whole entry): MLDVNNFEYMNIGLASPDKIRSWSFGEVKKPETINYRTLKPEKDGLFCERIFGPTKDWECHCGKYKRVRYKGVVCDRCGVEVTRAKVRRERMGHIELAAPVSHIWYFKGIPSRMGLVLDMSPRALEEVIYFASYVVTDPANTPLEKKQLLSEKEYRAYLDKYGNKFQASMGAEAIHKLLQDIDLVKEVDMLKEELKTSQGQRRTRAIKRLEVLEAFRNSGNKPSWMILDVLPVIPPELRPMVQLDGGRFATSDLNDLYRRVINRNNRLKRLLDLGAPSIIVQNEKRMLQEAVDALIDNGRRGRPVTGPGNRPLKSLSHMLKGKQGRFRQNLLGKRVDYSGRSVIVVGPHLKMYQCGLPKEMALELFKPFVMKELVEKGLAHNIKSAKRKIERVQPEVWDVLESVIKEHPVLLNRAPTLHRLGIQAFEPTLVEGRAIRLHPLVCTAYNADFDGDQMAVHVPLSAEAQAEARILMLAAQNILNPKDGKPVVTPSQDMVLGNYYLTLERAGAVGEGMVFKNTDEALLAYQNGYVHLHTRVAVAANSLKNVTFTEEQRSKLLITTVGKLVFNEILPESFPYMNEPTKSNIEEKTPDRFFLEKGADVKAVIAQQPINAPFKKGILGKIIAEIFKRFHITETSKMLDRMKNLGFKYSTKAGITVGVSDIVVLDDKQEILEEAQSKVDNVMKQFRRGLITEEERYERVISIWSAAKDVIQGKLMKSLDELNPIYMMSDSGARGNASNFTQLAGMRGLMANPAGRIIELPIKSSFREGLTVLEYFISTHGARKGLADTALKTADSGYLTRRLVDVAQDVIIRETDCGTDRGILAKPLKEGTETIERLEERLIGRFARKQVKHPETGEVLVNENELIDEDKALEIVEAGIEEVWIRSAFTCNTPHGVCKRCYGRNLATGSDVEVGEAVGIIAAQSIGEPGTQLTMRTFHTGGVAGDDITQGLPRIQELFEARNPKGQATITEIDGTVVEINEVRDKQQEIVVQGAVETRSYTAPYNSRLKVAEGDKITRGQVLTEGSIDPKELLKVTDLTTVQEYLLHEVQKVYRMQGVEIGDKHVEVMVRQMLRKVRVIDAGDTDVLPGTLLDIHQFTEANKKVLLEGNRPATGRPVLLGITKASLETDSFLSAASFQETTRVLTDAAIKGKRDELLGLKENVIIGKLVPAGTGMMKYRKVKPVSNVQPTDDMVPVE
T1 sequence (P20429 whole entry, further chain): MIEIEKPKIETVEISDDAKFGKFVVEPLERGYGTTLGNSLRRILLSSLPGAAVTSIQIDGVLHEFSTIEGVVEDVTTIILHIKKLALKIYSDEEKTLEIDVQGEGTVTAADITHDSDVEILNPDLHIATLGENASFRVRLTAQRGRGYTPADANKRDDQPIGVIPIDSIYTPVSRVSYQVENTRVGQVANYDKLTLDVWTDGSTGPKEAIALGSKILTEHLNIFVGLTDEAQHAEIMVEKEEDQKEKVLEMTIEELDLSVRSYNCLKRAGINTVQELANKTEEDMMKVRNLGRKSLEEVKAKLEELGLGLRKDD
T1 sequence (O35011 whole entry, further chain): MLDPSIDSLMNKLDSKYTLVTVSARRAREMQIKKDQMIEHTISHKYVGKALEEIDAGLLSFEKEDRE
T1 sequence (P37870 whole entry): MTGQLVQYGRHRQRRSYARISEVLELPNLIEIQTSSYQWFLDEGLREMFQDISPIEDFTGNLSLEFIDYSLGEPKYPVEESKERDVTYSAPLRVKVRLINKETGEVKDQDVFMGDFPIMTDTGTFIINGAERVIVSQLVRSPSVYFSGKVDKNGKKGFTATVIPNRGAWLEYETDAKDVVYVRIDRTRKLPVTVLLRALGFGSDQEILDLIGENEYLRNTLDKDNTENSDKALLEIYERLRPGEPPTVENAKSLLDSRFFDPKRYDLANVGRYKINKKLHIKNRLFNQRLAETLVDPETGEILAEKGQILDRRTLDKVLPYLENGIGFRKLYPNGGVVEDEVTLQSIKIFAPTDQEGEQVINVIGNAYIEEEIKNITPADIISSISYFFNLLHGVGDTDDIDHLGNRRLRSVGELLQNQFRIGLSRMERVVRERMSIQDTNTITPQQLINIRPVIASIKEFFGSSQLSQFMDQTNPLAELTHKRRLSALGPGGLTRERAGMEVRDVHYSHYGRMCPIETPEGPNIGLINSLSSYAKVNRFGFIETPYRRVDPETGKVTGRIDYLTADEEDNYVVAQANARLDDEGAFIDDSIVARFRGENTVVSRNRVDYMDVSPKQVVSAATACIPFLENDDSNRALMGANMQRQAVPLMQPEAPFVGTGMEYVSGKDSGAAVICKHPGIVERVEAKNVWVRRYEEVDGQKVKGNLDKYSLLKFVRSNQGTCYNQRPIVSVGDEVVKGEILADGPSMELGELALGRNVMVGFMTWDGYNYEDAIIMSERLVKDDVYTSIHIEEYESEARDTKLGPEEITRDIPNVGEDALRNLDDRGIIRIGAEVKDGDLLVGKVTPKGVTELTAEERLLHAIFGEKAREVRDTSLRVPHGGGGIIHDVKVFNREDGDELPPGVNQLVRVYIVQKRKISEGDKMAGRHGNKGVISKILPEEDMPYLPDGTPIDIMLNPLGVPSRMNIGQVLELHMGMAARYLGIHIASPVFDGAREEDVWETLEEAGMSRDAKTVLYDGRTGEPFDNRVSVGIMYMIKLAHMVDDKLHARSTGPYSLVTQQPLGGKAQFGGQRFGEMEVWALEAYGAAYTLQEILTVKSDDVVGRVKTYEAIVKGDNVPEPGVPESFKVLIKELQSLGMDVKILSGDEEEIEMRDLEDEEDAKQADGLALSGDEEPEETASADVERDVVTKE
T3 sequence (O35011 whole entry): as the sequence (O35011 whole entry, further chain) above
T3 sequence (P20429 whole entry, further chain): as the sequence (P20429 whole entry, further chain) above
T3 sequence (P37870 whole entry): as the sequence (P37870 whole entry) above
T3 sequence (P37871 whole entry): as the sequence (P37871 whole entry) above
T2 sequence (P00573 whole entry): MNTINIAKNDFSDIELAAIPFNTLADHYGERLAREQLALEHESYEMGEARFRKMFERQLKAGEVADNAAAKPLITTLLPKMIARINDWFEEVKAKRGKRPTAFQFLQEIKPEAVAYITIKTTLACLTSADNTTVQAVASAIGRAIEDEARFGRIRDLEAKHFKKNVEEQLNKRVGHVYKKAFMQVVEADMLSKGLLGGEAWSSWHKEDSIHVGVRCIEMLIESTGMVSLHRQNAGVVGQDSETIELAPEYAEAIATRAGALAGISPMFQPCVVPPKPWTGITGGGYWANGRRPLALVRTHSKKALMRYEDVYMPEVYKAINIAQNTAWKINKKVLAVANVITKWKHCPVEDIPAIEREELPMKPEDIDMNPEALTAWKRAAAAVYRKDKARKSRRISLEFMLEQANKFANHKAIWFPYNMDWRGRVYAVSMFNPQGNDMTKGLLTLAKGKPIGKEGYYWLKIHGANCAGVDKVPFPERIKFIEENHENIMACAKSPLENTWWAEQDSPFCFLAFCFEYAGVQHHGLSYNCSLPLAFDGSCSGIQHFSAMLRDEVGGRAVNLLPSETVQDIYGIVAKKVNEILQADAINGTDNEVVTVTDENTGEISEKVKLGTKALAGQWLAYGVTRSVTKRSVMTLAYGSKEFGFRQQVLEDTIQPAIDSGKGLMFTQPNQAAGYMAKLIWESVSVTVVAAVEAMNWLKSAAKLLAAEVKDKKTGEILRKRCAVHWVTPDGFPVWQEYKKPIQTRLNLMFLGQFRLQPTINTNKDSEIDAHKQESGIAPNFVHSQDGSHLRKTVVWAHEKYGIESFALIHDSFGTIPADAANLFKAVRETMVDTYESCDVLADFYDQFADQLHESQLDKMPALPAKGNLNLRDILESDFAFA

| SMILES | Expression of the test reporter, xyl-lacZ ([1]; strain PL37, FIG. 6) | RES:MUG ratio compared with the no antibiotic control (DMSO) ([1]; strain PL37, Table 2, FIG. 7) | Detection as specific inhibitor of RNA polymerase ([1]; strain PL37, antibiotic panel) | Ratio of the control reporter (RES): test reporter (MUG) [1, 4] | Ratio of the control reporter (RES): test reporter (MUG) ([1]; Dilution Number 2) | Ratio of the control reporter (RES): test reporter (MUG) ([1]; Dilution Number 3) | Ratio of the control reporter (RES): test reporter (MUG) ([1]; Dilution Number 4) | Ratio of the control reporter (RES): test reporter (MUG) ([1]; Dilution Number 5) | Ratio of the control reporter (RES): test reporter (MUG) ([1]; Dilution Number 6) | Ratio of the control reporter (RES): test reporter (MUG) ([1]; Dilution Number 7) | Ratio of the control reporter (RES): test reporter (MUG) ([1]; Dilution Number 8) | Ratio of the control reporter (RES): test reporter (MUG) ([1]; Dilution Number 9) | Ratio of the control reporter (RES): test reporter (MUG) ([1]; Dilution Number 10) | Ratio of the control reporter (RES): test reporter (MUG) [1, 5] | Expression of the T7 RNAP-dependent control reporter [2] | Reporter enzyme activities (β-galactosidase and β-glucuronidase) [3] |
| --- | --- | --- | --- | --- | --- | --- | --- | --- | --- | --- | --- | --- | --- | --- | --- | --- |
| CNC(=O)[C@@H](C)[C@H]1C(=O)/C(=C(O)/C=C/C(C)=C/[C@@H](C)[C@H]2O[C@@]3(C)O[C@H](C=C[C@@]34CO4)[C@@H]2C)C(=O)N1[C@@H]1CC[C@H](O)[C@H](C)O1 [Streptolydigin] | reduced drastically | greater than that of the no antibiotic control (DMSO) at several concentrations | detected as specific inhibitors of RNA polymerase | 16.44 | 16.68 | 14.07 | 10.22 | 4.88 | 2.53 | 1.74 | 1.41 | 1.27 | 1.23 | 1.16 | increased | only the reporter enzyme driven by the T7 RNAP (β-glucuronidase) was active |
| CC(O)C(=O)O.COc1cc(Cc2cnc(N)nc2N)cc(OC)c1OC [Trimethoprim Lactate] |  |  |  | 0.62 | 0.55 | 0.54 | 0.52 | 0.54 | 0.58 | 0.68 | 0.65 | 0.63 | 0.81 | 1.00 |  |  |
| CCC[C@@H]1C[C@@H](C(=O)N[C@@H]([C@H]2O[C@H](SC)[C@H](O)[C@@H](O)[C@H]2O)[C@@H](C)O)N(C)C1 [Lincomycin] |  |  |  | 1.09 | 1.20 | 1.29 | 1.61 | 1.91 | 1.40 | 1.08 | 0.99 | 1.02 | 1.03 | 1.08 |  |  |
| CC[C@H](C)[C@H](N)C1=N[C@H](C(=O)N[C@@H](CC(C)C)C(=O)N[C@H](CCC(=O)O)C(=O)N[C@H](C(=O)N[C@H]2CCCCNC(=O)[C@H](CC(N)=O)NC(=O)[C@@H](CC(=O)O)NC(=O)[C@H](Cc3cnc[nH]3)NC(=O)[C@@H](Cc3ccccc3)NC(=O)[C@H]([C@@H](C)CC)NC(=O)[C@@H](CCCN)NC2=O)[C@@H](C)CC)CS1 [Bacitracin] ({Ileψ(thiazoline)Cys}-L[dE]IK[dOrn]I[dF]H[dD]N; lactam 4-C) |  |  |  | 1.32 | 1.15 | 1.12 | 1.11 | 1.14 | 1.13 | 1.09 | 1.09 | 1.09 | 1.12 | 1.13 |  |  |
| CC[C@@]1([C@@H]2O[C@@H]([C@H]3O[C@@](O)(CO)[C@H](C)C[C@@H]3C)C[C@@H]2C)CC[C@H]([C@]2(C)CC[C@]3(C[C@H](O)[C@@H](C)[C@@H]([C@@H](C)[C@@H](OC)[C@H](C)C(=O)O)O3)O2)O1 [Monensin] |  |  |  | 1.74 | 1.42 | 1.45 | 1.79 | 2.06 | 2.00 | 1.88 | 1.74 | 1.54 | 1.37 | 1.33 |  |  |
| CC1(C)S[C@@H]2[C@H](NC(=O)C(C(=O)O)c3ccccc3)C(=O)N2[C@H]1C(=O)O (stereo partly shown) [Carbenicillin] |  |  |  | 1.37 | 1.49 | 1.59 | 1.63 | 1.66 | 1.64 | 1.60 | 1.03 | 1.00 | 1.05 | 1.07 |  |  |
| O=C(N[C@H](CO)[C@H](O)c1ccc([N+](=O)[O-])cc1)C(Cl)Cl [Chloramphenicol] |  |  |  | 1.10 | 1.22 | 1.27 | 1.40 | 1.90 | 1.51 | 1.20 | 1.16 | 1.14 | 1.13 | 1.17 |  |  |

— patent US20040072206A1, “Method for identifying modulators of transcription” (priority 2000, published 2004)
